Laboratory results: patent US20190119282A1, “IMIDAZOPYRIDAZINES USEFUL AS INHIBITORS OF THE PAR-2 SIGNALING PATHWAY” (Vertex Pharmaceuticals Incorporated, priority 2013, published 2019)

Experiments:
[1] = molecular target: T1, PAR2 (HT-29 cells, trypsin activation) (Homo sapiens, UniProt P55085); assay: Ca FLIPR TETRA assay, ANTAGONIST mode, stimulation with 3.1 U/mL trypsin; type: cell-based; conditions: HT-29 cells, stimulation with 3.1 U/mL trypsin
T1 construct: host or cells: HT-29 cells
T1 sequence (P55085 26-397): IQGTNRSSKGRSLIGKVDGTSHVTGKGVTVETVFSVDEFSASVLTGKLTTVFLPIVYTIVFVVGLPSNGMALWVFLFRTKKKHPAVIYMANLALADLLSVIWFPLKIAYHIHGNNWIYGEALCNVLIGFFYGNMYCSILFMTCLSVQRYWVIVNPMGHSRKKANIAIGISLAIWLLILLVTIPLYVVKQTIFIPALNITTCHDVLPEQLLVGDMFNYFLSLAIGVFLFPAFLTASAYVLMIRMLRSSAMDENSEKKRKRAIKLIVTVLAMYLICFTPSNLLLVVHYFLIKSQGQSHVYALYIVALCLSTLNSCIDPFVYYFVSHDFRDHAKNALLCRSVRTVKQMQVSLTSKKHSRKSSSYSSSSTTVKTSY
Outline: (§1)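 Cells plated overnight at 37 °C, 5% CO2 in 1% FBS medium; dye loading 45 min at 37 °C then 15 min r.t.; compound added from DMSO/HBSS dilution; first read for intrinsic Ca2+ activation; 30 min r.t. incubation; antagonist read after addition of the fixed activator (8 μM SLIGKV, 1 U/mL thrombin, 3.1 U/mL trypsin or 0.6 μM UTP).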

[2] = molecular target: T2, PAR2 (HT-29 cells, SLIGKV activation) (Homo sapiens, UniProt P55085); assay: Ca FLIPR TETRA assay, ANTAGONIST mode, stimulation with 8 μM SLIGKV; type: cell-based; conditions: HT-29 cells, stimulation with 8 μM SLIGKV
T2 construct: host or cells: HT-29 cells
T2 sequence (P55085 26-397): T1 sequence (P55085 26-397)
Outline: as §1

[3] = tested on: Thrombin-stimulated Ca2+ response in HT-29 cells; assay: Ca FLIPR TETRA assay, ANTAGONIST mode, stimulation with 1 U/mL Thrombin; type: cell-based, human; conditions: Homo sapiens, HT-29 cells, stimulation with 1 U/mL Thrombin
Outline: as §1

[4] = tested on: UTP-stimulated Ca2+ response in HT-29 cells; assay: Ca FLIPR TETRA assay, ANTAGONIST mode, stimulation with 0.6 μM UTP; type: cell-based, human; conditions: Homo sapiens, HT-29 cells, stimulation with 0.6 μM UTP
Outline: as §1

| IC50 ([1]; antagonist mode) | IC50 ([2]; antagonist mode) | IC50 ([3]; antagonist mode) | IC50 ([4]; antagonist mode) | IC50 [1] | IC50 [2] | IC50 [3] | IC50 [4] | SMILES |
| --- | --- | --- | --- | --- | --- | --- | --- | --- |
| 29 nM | 19 nM | > 1000 nM | > 1000 nM | – | – | – | – | Cc1cc(-c2cc(C(C)C)c3nc(C(=O)N4CCN(C(=O)c5ncccn5)CC4(C)C)cn3n2)ccc1F [Compound I-377] |
| 1 nM | 0.8 nM | > 1000 nM | > 1000 nM | – | – | – | – | Cc1cc(C(=O)N2CCN(C(=O)c3cn4nc(-c5ccc(C(F)(F)F)cc5)cc(C(C)(C)C)c4n3)C(C)(C)C2)[nH]n1 [Compound I-402] |
| 1.3 nM | 1 nM | > 1000 nM | > 1000 nM | – | – | – | – | Cc1cc(C(=O)N2CCN(C(=O)c3cn4nc(-c5ccc(C(F)(F)F)cc5)cc(C(C)C)c4n3)C(C)(C)C2)[nH]n1 [Compound I-390] |
| 5.6 nM | 4.5 nM | > 1000 nM | > 1000 nM | – | – | – | – | Cc1nc(C(=O)N2CCN(C(=O)c3cn4nc(-c5ccc(C(F)(F)F)cc5)cc(C(C)C)c4n3)C(C)(C)C2)c[nH]1 [Compound I-372] |
| 0.9 nM | 1.1 nM | > 1000 nM | > 1000 nM | – | – | – | – | CC(C)(C)c1cc(-c2ccc(Cl)c(F)c2)nn2cc(C(=O)N3CCNC(=O)C3(C)C)nc12 [Compound I-419] |
| 52.5 nM | 62.5 nM | > 50000 nM | 33000 nM | – | – | – | – | CC(C)c1cc(-c2ccc(F)cc2)nn2cc(C(=O)N3C[C@H](C)OCC3(C)C)nc12 [Compound I-187] |
| 2.6 nM | 1.7 nM | > 1000 nM | > 1000 nM | – | – | – | – | Cc1cc(-c2cc(C(C)(C)C)c3nc(C(=O)N4CCN(C(=O)c5ccccn5)CC4(C)C)cn3n2)ccc1F [Compound I-386] |
| 2 nM | 1.9 nM | > 1000 nM | > 1000 nM | – | – | – | – | Cc1ccc(-c2cc(C(C)(C)C)c3nc(C(=O)N4CCN(C(=O)c5cnc(C)[nH]5)CC4(C)C)cn3n2)cc1 [Compound I-422] |
| 0.4 nM | 0.4 nM | > 1000 nM | > 1000 nM | – | – | – | – | Cc1n[nH]c(C(=O)N2CCN(C(=O)c3cn4nc(-c5ccc(Br)cc5)cc(C(C)(C)C)c4n3)C(C)(C)C2)n1 [Compound I-519] |
| 2.1 nM | 1.9 nM | > 1000 nM | > 1000 nM | – | – | – | – | Cc1nnc(C(=O)N2CCN(C(=O)c3cn4nc(-c5ccc(C)c(F)c5)cc(C(C)(C)C)c4n3)C(C)(C)C2)o1 [Compound I-432] |
| 68.5 nM | 57 nM | > 1000 nM | > 1000 nM | – | – | – | – | CC(C)(C)c1cc(-c2ccc(F)cc2)nn2cc(C(=O)N3CCN(CC(=O)O)C(=O)C3(C)C)nc12 [Compound I-518] |
| – | – | – | – | 160 nM | 63 nM | > 50000 nM | > 50000 nM | CC(C)c1cc(-c2ccc(F)cc2)nn2cc(C(=O)N3CCN(C(=O)C(C)(C)NC(=O)OCc4ccccc4)[C@@H](C)C3)nc12 [Compound I-151] |
| 7.1 nM | 4.3 nM | > 1000 nM | > 1000 nM | – | – | – | – | CC(C)c1cc(-c2ccc(C(F)(F)F)cc2)nn2cc(C(=O)N3CCN(C(=O)c4ccncn4)CC3(C)C)nc12 [Compound I-247] |
| 163 nM | 110 nM | > 1000 nM | > 1000 nM | – | – | – | – | CC(C)c1cc(-c2cc(F)cc(F)c2)nn2cc(C(=O)N3CCN(C(=O)C(C)(C)O)CC3(C)C)nc12 [Compound I-224] |
| 170 nM | 82.5 nM | > 1000 nM | > 1000 nM | – | – | – | – | COC(=O)CC1(C)C(=O)NCCN1C(=O)c1cn2nc(-c3ccc(F)cc3)cc(C(C)(C)C)c2n1 (stereo not shown) [Compound I-509] |
| – | – | – | – | 59 nM | 54 nM | 21000 nM | 21000 nM | C[C@H](O)C(=O)N1CCN(C(=O)c2cn3nc(-c4ccc(F)cc4)cc(C4(C)CC4)c3n2)C(C)(C)C1 [Compound I-34, (2S)-1-[4-[6-(4-fluorophenyl)-8-(1-methylcyclopropyl)imidazo[1,2-b]pyridazine-2-carbonyl]-3,3-dimethyl-piperazin-1-yl]-2-hydroxy-propan-1-one] |
| – | – | – | – | 82 nM | 54 nM | > 5000 nM | > 5000 nM | O=C(c1cn2nc(-c3ccc(F)cc3)cc(C(F)(F)F)c2n1)N1CCC(n2cc(-c3ccccc3)[nH]c2=O)CC1 [Compound I-80] |

| IC50 ([1]; antagonist mode) | IC50 ([2]; antagonist mode) | IC50 ([3]; antagonist mode) | IC50 ([4]; antagonist mode) | IC50 [1] | IC50 [2] | IC50 [3] | IC50 [4] | SMILES |
| --- | --- | --- | --- | --- | --- | --- | --- | --- |
| 235 nM | 97 nM | > 1000 nM | > 1000 nM | – | – | – | – | Cc1nc(C(=O)N2CCN(C(=O)c3cn4nc(-c5ccc(F)cc5)cc(C(C)(C)C)c4n3)C(C)(C)C2)nn1COP(=O)(O)O [Compound I-485] |
| – | – | – | – | 5 nM | 2 nM | 6600 nM | 5200 nM | CC(C)c1cc(-c2ccc(F)cc2)nn2cc(C(=O)N3CCN(C(=O)CCC4CCC4)[C@@H](C)C3)nc12 [Compound I-144] |
| 0.6 nM | 0.3 nM | > 1000 nM | > 1000 nM | – | – | – | – | CC(C)c1cc(-c2ccc(C(F)(F)F)cc2)nn2cc(C(=O)N3CCN(C(=O)[C@H]4C[C@](O)(C(F)(F)F)C4)CC3(C)C)nc12 [Compound I-245] |
| 1500 nM | 970 nM | > 30000 nM | > 30000 nM | – | – | – | – | CC(C)c1cc(C(C)C)c2nc(C(=O)N3CCN(C(=O)C4CCC(C(=O)O)CC4)CC3(C)C)cn2n1 (stereo not shown) [Compound I-551, 4-[4-(6,8-diisopropylimidazo[1,2-b]pyridazine-2-carbonyl)-3,3-dimethyl-piperazine-1-carbonyl]cyclohexanecarboxylic acid] |
| – | – | – | – | 15 nM | 7 nM | 20000 nM | 19000 nM | CC(C)c1cc(-c2ccc(F)cc2)nn2cc(C(=O)N3CCN(C(=O)[C@H](O)C(C)C)[C@@H](C)C3)nc12 [Compound I-111] |
| 6.2 nM | 5.6 nM | > 1000 nM | > 1000 nM | – | – | – | – | Cc1n[nH]c(C(=O)N2CCN(C(=O)c3cn4nc(-c5ccc(F)c(C)c5)cc(C(C)C)c4n3)C(C)(C)C2)n1 [Compound I-345] |
| 16.5 nM | 6.2 nM | > 1000 nM | > 1000 nM | – | – | – | – | CC(C)c1cc(-c2ccc(F)c(F)c2)nn2cc(C(=O)N3CCN(C(=O)c4ccncn4)CC3(C)C)nc12 [Compound I-259] |
| 0.6 nM | 0.8 nM | > 1000 nM | > 1000 nM | – | – | – | – | Cc1cc(C(=O)N2CCN(C(=O)c3cn4nc(-c5ccc(C)c(F)c5)cc(C(C)C)c4n3)C(C)(C)C2)[nH]n1 [Compound I-335] |
| – | – | – | – | 54 nM | 4 nM | 13000 nM | 10000 nM | CC(C)c1cc(-c2ccc(F)cc2)nn2cc(C(=O)N3CCN(C(=O)[C@H](O)C(C)(C)C)[C@@H](C)C3)nc12 [Compound I-152] |
| 15.5 nM | 12.5 nM | > 1000 nM | > 1000 nM | – | – | – | – | Cc1cc(-c2cc(C(C)C)c3nc(C(=O)N4CCN(c5c[nH]cn5)C(=O)C4(C)C)cn3n2)ccc1F [Compound I-388] |
| 46.5 nM | 25.5 nM | > 1000 nM | > 1000 nM | – | – | – | – | Cc1cc(-c2cc(C(C)C)c3nc(C(=O)N4CCN(CC(C)(C)O)C(=O)C4(C)C)cn3n2)ccc1F [Compound I-449] |
| – | – | – | – | 860 nM | 830 nM | > 50000 nM | > 50000 nM | C[C@H](O)C(=O)N1CCN(C(=O)c2cn3nc(-c4ccc(F)cc4)cc(C(F)(F)F)c3n2)C(C)(C)C1 [Compound I-39, (2S)-1-[4-[6-(4-Fluorophenyl)-8-(trifluoromethyl)imidazo[1,2-b]pyridazine-2-carbonyl]-3,3-dimethyl-piperazin-1-yl]-2-hydroxy-propan-1-one] |
| – | – | – | – | 72 nM | 12 nM | 19000 nM | 22000 nM | CC(C)c1cc(-c2ccc(F)cc2)nn2cc(C(=O)N3CCN(C(=O)C(O)C(C)C)[C@@H](C)C3)nc12 (stereo partly shown) [Compound I-116] |
| 5.1 nM | 5.6 nM | > 1000 nM | > 1000 nM | – | – | – | – | Cc1cccc(-c2cc(C(C)(C)C)c3nc(C(=O)N4CCN(C(=O)c5c[nH]c(C)n5)CC4(C)C)cn3n2)c1 [Compound I-407] |
| 1.2 nM | 1.3 nM | > 1000 nM | > 1000 nM | – | – | – | – | Cc1cc(-c2cc(C(C)(C)C)c3nc(C(=O)N4CCN(C(=O)c5ccn[nH]5)CC4(C)C)cn3n2)ccc1F [Compound I-381] |
| 150 nM | 109 nM | > 1000 nM | > 1000 nM | – | – | – | – | Cc1cc(-c2cc(C(C)C)c3nc(C(=O)N4CN(Cc5ccccc5)C(=O)C4(C)C)cn3n2)ccc1F [Compound I-442, 3-benzyl-1-[6-(4-fluoro-3-methyl-phenyl)-8-isopropyl-imidazo[1,2-b]pyridazine-2-carbonyl]-5,5-dimethyl-imidazolidin-4-one] |
| 360 nM | 143 nM | > 1000 nM | > 1000 nM | – | – | – | – | CC(C)c1cc(-c2ccc(OC(F)(F)F)cc2)nn2cc(C(=O)N3CCN(C(=O)C(C)(C)O)CC3(C)C)nc12 [Compound I-219] |
